The results in this text go back to PubChem BioAssay (NCI).

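Five concentrations, 48 hours, 96-well plates. TGI marks complete inhibition of growth.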

Among the test systems are EKVX NSCLC; PC-3 prostate; HCT-15 colon; SNB-75 CNS; SN12C renal; UACC-62 melanoma; HS 578T breast; SR leukemia; NCI/ADR-RES ovarian; K-562 leukemia; NCI-H522 lung; LOX IMVI melanoma; U251 CNS; MOLT-4 leukemia; M14 melanoma; SF-295 CNS; SK-MEL-5 melanoma; HCC-2998 colon; DU-145 prostate.
What all share (assay): NCI tumour cell line growth inhibition, 48 h

Turning to `CC1=C(C(=O)NNC(=O)C(N)=O)CC(C(=O)NNC(=O)C(N)=O)=C(C)N1`, the TGI in the assay with EKVX NSCLC, in the assay with PC-3 prostate, in the assay with HCT-15 colon, in the assay with SNB-75 CNS, with SN12C renal and in the assay on UACC-62 melanoma was more than 100 µM each time. Besides, the TGI in the assay with HS 578T breast, in the assay with SR leukemia, in the assay on NCI/ADR-RES ovarian, in the assay with K-562 leukemia, in the assay on NCI-H522 lung and in the assay with LOX IMVI melanoma was more than 100 µM throughout. The TGI with U251 CNS, in the assay on MOLT-4 leukemia, in the assay on M14 melanoma, in the assay on SF-295 CNS, in the assay with SK-MEL-5 melanoma and in the assay on HCC-2998 colon was more than 100 µM each time. In addition, in the assay with DU-145 prostate, the TGI was more than 100 µM.
As for `Cc1cc(S(=O)(=O)Nc2nc3ccccc3[nH]2)c(S)cc1Cl`, the TGI is 99.5 µM in the assay on EKVX NSCLC; more than 100 µM with PC-3 prostate; more than 100 µM with HCT-15 colon; more than 100 µM with SNB-75 CNS; more than 100 µM in the assay on SN12C renal; more than 100 µM in the assay on UACC-62 melanoma. The TGI in the assay with HS 578T breast was more than 100 µM; with SR leukemia, more than 100 µM; in the assay on NCI/ADR-RES ovarian it was more than 100 µM; in the assay on K-562 leukemia it was more than 100 µM; in the assay with NCI-H522 lung it was more than 100 µM; in the assay on LOX IMVI melanoma, 39.8 µM. The TGI in the assay with U251 CNS was 78.3 µM; with MOLT-4 leukemia, more than 100 µM; in the assay on M14 melanoma, more than 100 µM; in the assay with SF-295 CNS, more than 100 µM; with SK-MEL-5 melanoma it was more than 100 µM; in the assay with HCC-2998 colon it was more than 100 µM. The same compound gave a TGI in the assay on DU-145 prostate of more than 100 µM.
Turning to `CN(C)/N=C1\C=C2CC[C@H](O[Si](C)(C)C(C)(C)C)[C@@]2(C)CC1`, the TGI in the assay on EKVX NSCLC was 38.6 µM; in the assay with PC-3 prostate it was 28.1 µM; in the assay on HCT-15 colon, 33 µM; with SNB-75 CNS it was 30.9 µM; in the assay with UACC-62 melanoma, 30.4 µM; with HS 578T breast, 43.9 µM. Moreover, the TGI in the assay with SR leukemia came to 40.9 µM; in the assay with NCI/ADR-RES ovarian, 34.5 µM; in the assay on K-562 leukemia, 35.9 µM; with NCI-H522 lung, 26.3 µM; with LOX IMVI melanoma, 34.4 µM; in the assay on U251 CNS it was 29.7 µM. Besides, the TGI in the assay on MOLT-4 leukemia worked out at 32.4 µM; in the assay with M14 melanoma it was 33 µM; with SF-295 CNS it was 30 µM; in the assay on SK-MEL-5 melanoma it was 24.9 µM; in the assay on HCC-2998 colon it was 30.6 µM; in the assay on DU-145 prostate it was 33.2 µM.
Regarding `COc1ccc(C2C3=C(COC3=O)OC(C)(C)Oc3cc4c(cc32)OCO4)cc1` (configuration not stated), the TGI is more than 92.7 µM in the assay on EKVX NSCLC; 73.4 µM in the assay with PC-3 prostate; more than 100 µM in the assay with HCT-15 colon; 23 µM in the assay with SNB-75 CNS; more than 100 µM in the assay with SN12C renal; more than 66.6 µM in the assay on UACC-62 melanoma. Also, the TGI was more than 100 µM with HS 578T breast; more than 100 µM in the assay on SR leukemia; more than 81.6 µM in the assay with NCI/ADR-RES ovarian; more than 61.6 µM in the assay with K-562 leukemia; more than 69.5 µM in the assay on NCI-H522 lung; more than 86.8 µM in the assay on LOX IMVI melanoma. The TGI was more than 100 µM in the assay on U251 CNS; more than 83.8 µM in the assay with MOLT-4 leukemia; more than 100 µM in the assay on M14 melanoma; more than 100 µM with SF-295 CNS; 99.8 µM with SK-MEL-5 melanoma; 96.9 µM in the assay with HCC-2998 colon. The TGI in the assay on DU-145 prostate was more than 100 µM.
In the case of `CCN(CC)CCOc1ccc(N2Cc3ccccc3C2=O)cc1`, the TGI in the assay on EKVX NSCLC, in the assay with PC-3 prostate, in the assay with HCT-15 colon, in the assay on SNB-75 CNS, with SN12C renal and in the assay with UACC-62 melanoma was more than 10 µM in each case. Also, the TGI in the assay with HS 578T breast, in the assay with SR leukemia, in the assay on NCI/ADR-RES ovarian, in the assay with K-562 leukemia, in the assay on NCI-H522 lung and in the assay on LOX IMVI melanoma was more than 10 µM in each case. The TGI in the assay on U251 CNS, with MOLT-4 leukemia, in the assay with M14 melanoma, in the assay on SF-295 CNS, in the assay with SK-MEL-5 melanoma and with HCC-2998 colon was more than 10 µM throughout. In the assay on DU-145 prostate, this compound registered a TGI of more than 10 µM.
Take `CC(C)C(C/C=C1/CC(CO)(COC(=O)C(C)(C)C)OC1=O)C(C)C` (configuration not stated): the TGI worked out at 23 µM in the assay with EKVX NSCLC; 21.1 µM in the assay with PC-3 prostate; 34.6 µM with HCT-15 colon; 21.1 µM in the assay on SNB-75 CNS; 23.3 µM with SN12C renal; 26 µM in the assay with UACC-62 melanoma. The TGI in the assay with HS 578T breast was 11 µM; in the assay with SR leukemia, more than 50.5 µM; in the assay with NCI/ADR-RES ovarian it was 36.6 µM; in the assay with K-562 leukemia, 24.9 µM; in the assay with NCI-H522 lung it was 27.6 µM; with LOX IMVI melanoma, 28.4 µM. For the same compound, the TGI in the assay on U251 CNS amounted to 27.5 µM; with MOLT-4 leukemia it was 35.6 µM; in the assay on M14 melanoma, 24.4 µM; in the assay with SF-295 CNS, 17.9 µM; in the assay on SK-MEL-5 melanoma, 20.7 µM; in the assay on HCC-2998 colon it was 15.2 µM. Further, the TGI in the assay on DU-145 prostate was 23.4 µM.
Regarding `N#Cc1nc(Sc2cnsn2)c(Sc2cnsn2)nc1C#N`, the TGI in the assay on EKVX NSCLC came to 36.7 µM; in the assay with PC-3 prostate, 51 µM; with HCT-15 colon, 13.1 µM; in the assay on SNB-75 CNS, 48.8 µM; in the assay with SN12C renal, 56.3 µM; in the assay with UACC-62 melanoma, 32.5 µM. For the same compound, the TGI in the assay with HS 578T breast was 43 µM; in the assay on SR leukemia, more than 100 µM; in the assay on NCI/ADR-RES ovarian, 54.3 µM; with K-562 leukemia, more than 81.8 µM; with NCI-H522 lung, 8.53 µM; with LOX IMVI melanoma it was 50.2 µM. The TGI with U251 CNS was more than 90.1 µM; in the assay with MOLT-4 leukemia, more than 30.1 µM; in the assay with M14 melanoma it was 60.7 µM; with SF-295 CNS, more than 58.8 µM; in the assay on SK-MEL-5 melanoma, 29.4 µM; in the assay with HCC-2998 colon, 33.5 µM. In the assay on DU-145 prostate, the TGI was 35.5 µM.
